In PubChem BioAssay AID1963973 (Molecular Pharmacology Branch, DTP, NCI, 2024):

Test system: 883617-216-R-J1-PDC tumor spheroids, viability
Test: Anticancer human tumor 883617-216-R-J1-PDC patient-derived bladder carcinoma cell line growth inhibition [PI3K]
Conditions: spheroids with HUVEC and MSC; for IC50: curve of first compound; for viability, T/C: stronger effect = lower value
Method in brief: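 We assembled tumor spheroids that included a stromal compartment of HUVEC and MSCs, then exposed them to targeted agents alone and together with PI3K pathway inhibitors. Concentration series descended by half-log from clinically achievable Cmax levels. Viability served as the endpoint.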

[1] = second compound 0.00316 µM, first compound 0.0316 µM
[2] = second compound 0.00316 µM, first compound 0.1 µM
[3] = second compound 0.01 µM, first compound 0.0316 µM
[4] = second compound 0.01 µM, first compound 0.1 µM
[5] = second compound 0.0316 µM, first compound 0.0316 µM
[6] = second compound 0.0316 µM, first compound 0.1 µM
[7] = second compound 0.1 µM, first compound 0.0316 µM
[8] = second compound 0.1 µM, first compound 0.1 µM
[9] = second compound 0.316 µM, first compound 0.0316 µM
[10] = second compound 0.316 µM, first compound 0.1 µM
[11] = second compound 1 µM, first compound 0.0316 µM
[12] = second compound 1 µM, first compound 0.1 µM
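Also: spheroids exposed to agents for 7 days before the viability read.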

With `C[C@@H](NC(=O)c1ncnc(N)c1Cl)c1ncc(C(=O)Nc2cc(C(F)(F)F)c(Cl)cn2)s1` + COc1c(OCCCN2CCOCC2)ccc2c3n(c(=NC(=O)c4cnc(N)nc4)nc12)CCN3 the IC50 (second compound 0.00316 µM) was > 10000 nM, the IC50 (second compound 0.01 µM) was > 10000 nM and the IC50 (second compound 0.0316 µM) was < 31.6 nM. For the same compound, the IC50 (second compound 0.1 µM) was < 31.6 nM, the IC50 (second compound 0.316 µM) was < 31.6 nM and the IC50 (second compound 1 µM) was < 31.6 nM. The viability, T/C [1] was 86.2%, the viability, T/C [2] was 83.1% and the viability, T/C (second compound 0.00316 µM, first compound 0.316 µM) was 86.1%. For the same compound, the viability, T/C (second compound 0.00316 µM, first compound 1 µM) was 96%, the viability, T/C (second compound 0.00316 µM, first compound 3.16 µM) was 70.9% and the viability, T/C (second compound 0.00316 µM, first compound 10 µM) was 59.9%. For the same compound, the viability, T/C [3] was 88.2%, the viability, T/C [4] was 71.5% and the viability, T/C (second compound 0.01 µM, first compound 0.316 µM) was 72.5%. For the same compound, the viability, T/C (second compound 0.01 µM, first compound 1 µM) was 87.5%, the viability, T/C (second compound 0.01 µM, first compound 3.16 µM) was 71.5% and the viability, T/C (second compound 0.01 µM, first compound 10 µM) was 56.6%. It also gave a viability, T/C [5] of 38.3%, a viability, T/C [6] of 41.2% and a viability, T/C (second compound 0.0316 µM, first compound 0.316 µM) of 42.1%. For the same compound, the viability, T/C (second compound 0.0316 µM, first compound 1 µM) was 50.4%, the viability, T/C (second compound 0.0316 µM, first compound 3.16 µM) was 40.8% and the viability, T/C (second compound 0.0316 µM, first compound 10 µM) was 30.9%. It also gave a viability, T/C [7] of 19%, a viability, T/C [8] of 20.6% and a viability, T/C (second compound 0.1 µM, first compound 0.316 µM) of 23.1%. The viability, T/C (second compound 0.1 µM, first compound 1 µM) was 22%, the viability, T/C (second compound 0.1 µM, first compound 3.16 µM) was 20.5% and the viability, T/C (second compound 0.1 µM, first compound 10 µM) was 14.5%. It also gave a viability, T/C [9] of 7.26%, a viability, T/C [10] of 7.17% and a viability, T/C (second compound 0.316 µM, first compound 0.316 µM) of 7.53%. For the same compound, the viability, T/C (second compound 0.316 µM, first compound 1 µM) was 7.56%, the viability, T/C (second compound 0.316 µM, first compound 3.16 µM) was 9.7% and the viability, T/C (second compound 0.316 µM, first compound 10 µM) was 5.01%. It also gave a viability, T/C [11] of 5.51%, a viability, T/C [12] of 5.13% and a viability, T/C (second compound 1 µM, first compound 0.316 µM) of 5.48%. It also gave a viability, T/C (second compound 1 µM, first compound 1 µM) of 5.61%, a viability, T/C (second compound 1 µM, first compound 3.16 µM) of 5.29% and a viability, T/C (second compound 1 µM, first compound 10 µM) of 2.13%.
In the case of `Cn1ncnc1[C@H]1c2n[nH]c(=O)c3cc(F)cc(c23)N[C@@H]1c1ccc(F)cc1` + COc1c(OCCCN2CCOCC2)ccc2c3n(c(=NC(=O)c4cnc(N)nc4)nc12)CCN3, the IC50 (second compound 0.00316 µM) is reported as > 100 nM, the IC50 (second compound 0.01 µM) is reported as > 100 nM and the IC50 (second compound 0.0316 µM) is reported as < 0.316 nM. For the same compound, the IC50 (second compound 0.1 µM) was < 0.316 nM, the IC50 (second compound 0.316 µM) was < 0.316 nM and the IC50 (second compound 1 µM) was < 0.316 nM. It also gave a viability, T/C (second compound 0.00316 µM, first compound 0.000316 µM) of 88.1%, a viability, T/C (second compound 0.00316 µM, first compound 0.001 µM) of 79.5% and a viability, T/C (second compound 0.00316 µM, first compound 0.00316 µM) of 87.2%. For the same compound, the viability, T/C (second compound 0.00316 µM, first compound 0.01 µM) was 75.3%, the viability, T/C [1] was 67.2% and the viability, T/C [2] was 54.6%. For the same compound, the viability, T/C (second compound 0.01 µM, first compound 0.000316 µM) was 63.2%, the viability, T/C (second compound 0.01 µM, first compound 0.001 µM) was 64.7% and the viability, T/C (second compound 0.01 µM, first compound 0.00316 µM) was 64.9%. For the same compound, the viability, T/C (second compound 0.01 µM, first compound 0.01 µM) was 86.1%, the viability, T/C [3] was 54.8% and the viability, T/C [4] was 45%. For the same compound, the viability, T/C (second compound 0.0316 µM, first compound 0.000316 µM) was 31.3%, the viability, T/C (second compound 0.0316 µM, first compound 0.001 µM) was 36.6% and the viability, T/C (second compound 0.0316 µM, first compound 0.00316 µM) was 35.3%. For the same compound, the viability, T/C (second compound 0.0316 µM, first compound 0.01 µM) was 33.9%, the viability, T/C [5] was 39.3% and the viability, T/C [6] was 29%. It also gave a viability, T/C (second compound 0.1 µM, first compound 0.000316 µM) of 16%, a viability, T/C (second compound 0.1 µM, first compound 0.001 µM) of 17.7% and a viability, T/C (second compound 0.1 µM, first compound 0.00316 µM) of 16.2%. It also gave a viability, T/C (second compound 0.1 µM, first compound 0.01 µM) of 15.3%, a viability, T/C [7] of 15.6% and a viability, T/C [8] of 14.1%. The viability, T/C (second compound 0.316 µM, first compound 0.000316 µM) was 5.21%, the viability, T/C (second compound 0.316 µM, first compound 0.001 µM) was 5.06% and the viability, T/C (second compound 0.316 µM, first compound 0.00316 µM) was 5.56%. The viability, T/C (second compound 0.316 µM, first compound 0.01 µM) was 5.19%, the viability, T/C [9] was 5.74% and the viability, T/C [10] was 3.68%. The viability, T/C (second compound 1 µM, first compound 0.000316 µM) was 4.93%, the viability, T/C (second compound 1 µM, first compound 0.001 µM) was 4.65% and the viability, T/C (second compound 1 µM, first compound 0.00316 µM) was 3.52%. For the same compound, the viability, T/C (second compound 1 µM, first compound 0.01 µM) was 2.9%, the viability, T/C [11] was 3.13% and the viability, T/C [12] was 2.73%.
